According to ChEMBL document CHEMBL1201862, “PubChem BioAssay data set” (2004):
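Tested at 5 concentrations; 48 h exposure; 96-well plates; endpoints linearly interpolated, else capped at highest concentration. At the GI50, growth is halved.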 Calls of active or inactive are those of the source. Rule as the data show it: active = GI50 up to about 1.1 µM and inactive = higher. Non-standard residues stand in square brackets, D forms with d. Residues, ends and D or L forms follow the SMILES beside them. *: point of attachment. Phe(4-NO2) = N[CH](Cc1ccc([N+](=O)[O-])cc1)C(=O)O; Boc = CC(C)(C)OC(=O)*

Legend:
Assay in all cases: NCI tumour cell line growth inhibition, 48 h
A498 = tested on: A498
ACHN = tested on: ACHN
BT-549 = tested on: BT-549
KM12 = tested on: KM12
MCF7 = tested on: MCF7
NCI-H460 = tested on: NCI-H460
NCI/ADR-RES = tested on: NCI/ADR-RES
PC-3 = tested on: PC-3
SF-539 = tested on: SF-539
SW-620 = tested on: SW-620
HOP-62 = tested on: HOP-62
Malme-3M = tested on: Malme-3M
RXF 393 = tested on: RXF 393
TK-10 = tested on: TK-10
SR = tested on: SR

| SMILES | GI50 (A498) | GI50 (ACHN) | GI50 (BT-549) | GI50 (KM12) | GI50 (MCF7) | GI50 (NCI-H460) | GI50 (NCI/ADR-RES) | GI50 (PC-3) | GI50 (SF-539) | GI50 (SW-620) | GI50 (HOP-62) | GI50 (Malme-3M) | GI50 (RXF 393) | GI50 (TK-10) | GI50 (SR) |
| --- | --- | --- | --- | --- | --- | --- | --- | --- | --- | --- | --- | --- | --- | --- | --- |
| CC(C)(O)C1COC2=C1C(=O)c1ccccc1C2=O (stereo not drawn) | > 100 µM (inactive) | 48.2 µM (inactive) | 18.2 µM (inactive) | 88.3 µM (inactive) | 20.3 µM (inactive) | 54 µM (inactive) | 19.1 µM (inactive) | 31.6 µM (inactive) | 43.6 µM (inactive) | 23 µM (inactive) | – | – | – | – | – |
| Cc1cccc(C)c1NC(=S)N/C=C(\C#N)C(N)=O | – | > 100 µM (inactive) | – | > 100 µM (inactive) | > 100 µM (inactive) | > 100 µM (inactive) | > 100 µM (inactive) | > 100 µM (inactive) | > 100 µM (inactive) | > 100 µM (inactive) | > 100 µM (inactive) | > 100 µM (inactive) | > 100 µM (inactive) | > 100 µM (inactive) | – |
| c1nc2nc[nH]c(SSc3[nH]cnc4ncnc3-4)c-2n1 | 14.4 µM (inactive) | 3.21 µM (inactive) | 14.1 µM (inactive) | 1.06 µM (active) | 0.136 µM (active) | 2.65 µM (inactive) | 0.217 µM (active) | 1.23 µM (inactive) | – | 0.824 µM (active) | 0.116 µM (active) | 0.376 µM (active) | > 100 µM (inactive) | < 0.0343 µM (active) | – |
| CC(C)(Br)C(Br)CCC(C)(Br)C(Br)CO (stereo not drawn) | > 10 µM (inactive) | > 10 µM (inactive) | > 10 µM (inactive) | – | > 10 µM (inactive) | – | > 10 µM (inactive) | > 10 µM (inactive) | > 10 µM (inactive) | > 10 µM (inactive) | > 10 µM (inactive) | > 10 µM (inactive) | > 10 µM (inactive) | – | – |
| CC(=O)NCCc1c[nH]c2ccc(Cl)cc12 | – | > 100 µM (inactive) | 25 µM (inactive) | > 100 µM (inactive) | > 100 µM (inactive) | > 100 µM (inactive) | > 100 µM (inactive) | > 100 µM (inactive) | > 100 µM (inactive) | > 100 µM (inactive) | > 100 µM (inactive) | > 100 µM (inactive) | > 100 µM (inactive) | > 100 µM (inactive) | > 100 µM (inactive) |
| O=C(N/N=C\C(F)(F)F)c1ccncc1 | 46.9 µM (inactive) | – | > 100 µM (inactive) | 8.09 µM (inactive) | 86.3 µM (inactive) | 19.9 µM (inactive) | > 100 µM (inactive) | 26.9 µM (inactive) | – | 37.8 µM (inactive) | 24.7 µM (inactive) | > 100 µM (inactive) | 13.9 µM (inactive) | 22.8 µM (inactive) | 35.2 µM (inactive) |
| CCC(C)C1=C(O)[N+]2([O-])Oc3ccc(-c4c(O)c(O)c(-c5ccc(O)cc5)c(OC(C)=O)c4OC(C)=O)cc3OC2(C(C)CC)C(=O)N1O (stereo not drawn) | > 50 µM (inactive) | > 50 µM (inactive) | – | > 50 µM (inactive) | > 50 µM (inactive) | > 50 µM (inactive) | > 50 µM (inactive) | > 50 µM (inactive) | > 50 µM (inactive) | > 50 µM (inactive) | – | > 50 µM (inactive) | > 50 µM (inactive) | > 50 µM (inactive) | > 50 µM (inactive) |
| COC(=O)C1[C@H](C(=O)OC)C1(Br)CBr (stereo partly drawn) | > 100 µM (inactive) | > 100 µM (inactive) | > 100 µM (inactive) | > 100 µM (inactive) | > 100 µM (inactive) | > 100 µM (inactive) | > 100 µM (inactive) | > 100 µM (inactive) | > 100 µM (inactive) | > 100 µM (inactive) | > 100 µM (inactive) | – | > 100 µM (inactive) | > 100 µM (inactive) | > 100 µM (inactive) |
| COc1nc(-c2cn(S(=O)(=O)c3ccc(C)cc3)c3ccc(Br)cc23)cc(C(F)(F)F)c1C#N | 52.5 µM (inactive) | 29.1 µM (inactive) | 24.5 µM (inactive) | > 100 µM (inactive) | 50.4 µM (inactive) | > 100 µM (inactive) | 71.8 µM (inactive) | 47.4 µM (inactive) | 34.9 µM (inactive) | 66.2 µM (inactive) | – | > 100 µM (inactive) | 19.8 µM (inactive) | – | – |
| CN1C(=O)[C@@H]2[C@@H]3c4ccccc4N[C@@H]3c3[nH]c4ccccc4c3[C@@H]2C1=O | 25.4 µM (inactive) | 18.5 µM (inactive) | 18.7 µM (inactive) | – | 22.4 µM (inactive) | 15.3 µM (inactive) | 22.8 µM (inactive) | 17.4 µM (inactive) | 19 µM (inactive) | 29.2 µM (inactive) | 19.5 µM (inactive) | – | 25 µM (inactive) | 23.8 µM (inactive) | 15.8 µM (inactive) |
| N#Cc1nc(Cc2cccs2)oc1N | > 100 µM (inactive) | > 100 µM (inactive) | – | > 100 µM (inactive) | > 100 µM (inactive) | – | – | > 100 µM (inactive) | – | > 100 µM (inactive) | > 100 µM (inactive) | – | > 100 µM (inactive) | > 100 µM (inactive) | > 100 µM (inactive) |
| CC(=O)/C(=C/n1c(=S)[nH]c2ccccc21)C(=O)Nc1ccccc1C | > 100 µM (inactive) | > 100 µM (inactive) | > 100 µM (inactive) | > 100 µM (inactive) | – | > 100 µM (inactive) | > 100 µM (inactive) | – | > 100 µM (inactive) | > 100 µM (inactive) | > 100 µM (inactive) | – | > 100 µM (inactive) | > 100 µM (inactive) | – |
| O=C1O/C(=C\c2ccccc2)N(c2ccccc2)C1=O | > 100 µM (inactive) | > 100 µM (inactive) | > 100 µM (inactive) | > 100 µM (inactive) | 51.8 µM (inactive) | > 100 µM (inactive) | > 100 µM (inactive) | > 100 µM (inactive) | – | > 100 µM (inactive) | > 100 µM (inactive) | – | > 100 µM (inactive) | > 100 µM (inactive) | > 100 µM (inactive) |
| COc1ccc(C#CC(=O)O)c(OC)c1 | > 100 µM (inactive) | > 100 µM (inactive) | > 100 µM (inactive) | > 100 µM (inactive) | > 100 µM (inactive) | > 100 µM (inactive) | > 100 µM (inactive) | > 100 µM (inactive) | > 100 µM (inactive) | > 100 µM (inactive) | > 100 µM (inactive) | > 100 µM (inactive) | – | > 100 µM (inactive) | > 100 µM (inactive) |
| CN(C)c1ccc(C2ON=C(c3ccccc3)N2C23CC4CC(CC(C4)C2)C3)cc1 (stereo not drawn) | > 10 µM (inactive) | > 10 µM (inactive) | > 10 µM (inactive) | > 10 µM (inactive) | – | > 10 µM (inactive) | > 10 µM (inactive) | > 10 µM (inactive) | > 10 µM (inactive) | > 10 µM (inactive) | > 10 µM (inactive) | > 10 µM (inactive) | > 10 µM (inactive) | > 10 µM (inactive) | 8.02 µM (inactive) |
| COC(=O)CCC(NC(=O)OC(C)(C)C)C(=O)NC(Cc1ccc([N+](=O)[O-])cc1)C(=O)NC(CCC(=O)OC)C(=O)OC (stereo not drawn) (Boc-Glu(OMe)-[Phe(4-NO2)]-Glu(OMe)-OMe; configuration not given here) | > 100 µM (inactive) | > 100 µM (inactive) | – | > 100 µM (inactive) | > 100 µM (inactive) | 60.3 µM (inactive) | > 100 µM (inactive) | > 100 µM (inactive) | 43.5 µM (inactive) | > 100 µM (inactive) | > 100 µM (inactive) | > 100 µM (inactive) | > 100 µM (inactive) | > 100 µM (inactive) | 28.8 µM (inactive) |
| CC1CN=C(Nc2cccc(C(F)(F)F)c2)S1 (stereo not drawn) | 42 µM (inactive) | > 100 µM (inactive) | 80 µM (inactive) | 81.5 µM (inactive) | 44.7 µM (inactive) | 52.8 µM (inactive) | – | – | > 100 µM (inactive) | – | 95.3 µM (inactive) | > 100 µM (inactive) | 42.9 µM (inactive) | 84.5 µM (inactive) | 21.7 µM (inactive) |
| COc1ccccc1NC(=O)/C(Cc1nc2ccc([N+](=O)[O-])cc2nc1O)=N\NC(=O)C[N+](C)(C)C | – | > 100 µM (inactive) | > 100 µM (inactive) | 31.8 µM (inactive) | 72.8 µM (inactive) | 38.1 µM (inactive) | 38.6 µM (inactive) | > 100 µM (inactive) | 49.5 µM (inactive) | 48 µM (inactive) | > 100 µM (inactive) | – | > 100 µM (inactive) | > 100 µM (inactive) | 1.44 µM (inactive) |
| S=C(N/N=C(/c1ccccc1)c1ccccn1)Nc1cccc(Cl)c1 | 2.24 µM (inactive) | 0.225 µM (active) | 1.05 µM (active) | 0.414 µM (active) | 0.091 µM (active) | 0.316 µM (active) | 0.0432 µM (active) | – | 1.48 µM (inactive) | < 0.0385 µM (active) | 1.27 µM (inactive) | 0.119 µM (active) | 1.08 µM (active) | 0.714 µM (active) | < 0.026 µM (active) |
| Nc1n2nc(-c3ccccc3)sc2n[n+]1CC(=O)c1ccccc1 | 25.1 µM (inactive) | 12.9 µM (inactive) | 25.9 µM (inactive) | 6.3 µM (inactive) | 5.37 µM (inactive) | 11.5 µM (inactive) | 14 µM (inactive) | 11 µM (inactive) | 6.78 µM (inactive) | 4.89 µM (inactive) | 14 µM (inactive) | > 10 µM (inactive) | 10.8 µM (inactive) | 27.4 µM (inactive) | – |
| Cc1nc(C(N)=S)sc1C(=O)CC(=O)C(=O)Nc1ccc(Br)cc1 | > 100 µM (inactive) | > 100 µM (inactive) | > 100 µM (inactive) | > 100 µM (inactive) | > 100 µM (inactive) | > 100 µM (inactive) | > 100 µM (inactive) | > 100 µM (inactive) | > 100 µM (inactive) | > 100 µM (inactive) | > 100 µM (inactive) | > 100 µM (inactive) | > 100 µM (inactive) | > 100 µM (inactive) | – |
